The values that follow come from patent publication US9611314B2, “Functional peptide analogs of PEDF” (The Penn State Research Foundation, priority 2013, dated 2017).

Where no end group is shown, it is not given here.

Data set [1] in a line: Peptide bioavailability in mouse vitreous after 5 μg eye drop (MALDI TOF). The data set is classed as in vivo, C57BL/6 mice. The conditions noted are these: mouse, in vivo. On the procedure:
Before the longitudinal efficacy studies were carried out in vivo, the bioavailability of the five analogs was examined in comparison to the parent compound P78 and its active 29-mer derivative, SpxA1.
Bioavailability of each peptide was determined in vitreous samples obtained at various time points after eye drops were given. Vitreous samples were harvested from enucleated eyes and immediately analyzed by mass spectrometry. Spectral intensities were compared to spectra of known concentrations of each analog to calculate amounts of peptides reaching the vitreous. The eye drops administered to normal mouse eyes contained 5 μg of the test compound. Bioavailability was studied at three time points: 1, 4, 6 hr using four animals/time point (n=8 eyes). The vitreous was rapidly dissected from each group after the drops were given and immediately analyzed by MALDI TOF.

The nature of data set [2]: Peptide bioavailability in primate eyes, vitreous humor by mass spectrometry. The class given is in vivo, primate (Vervets). The conditions noted are these: 100 μg topical. The source says: From the studies using the DR mouse model, two active, structurally diverse peptides 81-5 and 81-13 were selected to test their availability in the primate eye when given topically. There are substantial differences between the eyes of rodents, primates, and humans. The most obvious is size of the aqueous and vitreous fluid compartments. Fluid flow forward from the ciliary body in primates/humans is countercurrent to drug movement to the back of the eye and may influence drug concentrations in the vitreous. In this study, it was examined whether the selected compounds had access to the retina when given topically to primate eyes as they do in rodents. Peptide doses used were scaled up by 8-20 fold as an estimate to account for differences in eye volume between rodents and primates.
Adult males and females were equally distributed into 3 treatment groups (Table 3) and randomized by weight criteria. Animals were fasted overnight then sedated with ketamine (8 mg/kg, I.M) and xylazine (1.6 mg/kg, I.M) prior to all procedures. Two monkeys received a topical dose of 40 μg (40 μl) of 81-5 OU (both eyes) and underwent vitreocentesis at ˜1 hr (Group 1) after dosing. […]
Samples were analyzed by mass spectrometry and concentrations calculated using a standard curve that plotted intensity vs known concentration. […]

Data set [3] has as its system transcription factors. Description: Procarta multiplex transcription factor DNA binding activity. The conditions noted are these: 50 nM peptides, 48 hr, human RPE cells. The class given is cell-based. Here is the method:
Activation of transcription factors by P78, spx or 81-5 was measured in human RPE cells. The Affymetrix Procarta Multiplex Transcription factor panel (Affymetrix, Inc. Santa Clara, Calif.) was used to obtain quantitative measurement of DNA binding activity of 44 transcription factors. Cells were seeded at 1×10^5 cells/ml in 6 well plates. Cells were treated with 50 nM peptides in 2% FBS medium for 48 hr, peptides were supplied twice after 24 hr. Cells were harvested using Buffer A working reagent (250 μl well)(1 ml Buffer A: 10 μl DTT, 10 μl protease inhibitor, 10 μl phosphatase inhibitor I, 10 μl phosphatase inhibitor II) and centrifuged at 14,000×g for 3 min at 4° C. Supernatant containing cytoplasmic proteins was collected and protein concentration estimated using the BioRad DC protein assay. To the nuclear pellets, 30 μl/well buffer B (1 ml Buffer B: 10 μl DTT, 10 μl protease inhibitor, 10 μl phosphatase inhibitor I) was added and the samples incubated for 2 hours at 200 rpm. Supernatant containing nuclear proteins was collected by centrifugation at 14,000×g for 5 min at 4° C. and protein concentration measured using Bio-Rad DC protein assay. […] The beads were washed again, resuspended with reading buffer, and incubated for 5 min at room temperature. DNA binding activity of the transcription factors was measured using the Bio-Plex 200 system (bio-Rad) and the xMAP technology.

Take “SALSLGAAERTESIIHR [Peptide 81-13, SALSLGAAERTESIIHR]”: in data set [1], the “bioavailability profile in rodents” value is given as “comparable bioavailability profiles with 81-5”. Also, the “peptide concentration in the vitreous, 1 versus 2 hr” value in data set [2] was “not significantly different between the 1 and 2 hr treatment”.

B1: Pigment epithelium derived factor (protein)
chain: QNVPSSSEGSPVPDSTGEPVEEEDPFFKVPVNKLAAAVSNFGYDLYRLRSSASPTGNVLLSPLSVATALSALSLGAEHRTESVIHRALYYDLITNPDIHSTYKELLASVTAPEKNLKSASRIVFERKLRVKSSFVAPLEKSYGTRPRILTGNPRVDLQEINNWVQAQMKGKIARSTREMPSALSILLLGVAYFKGQWVTKFDSRKTTLQDFHLDEDRTVRVPMMSDPKAILRYGLDSDLNCKIAQLPLTGSMSIIFFLPLTVTQNLTMIEESLTSEFIHDIDRELKTIQAVLTVPKLKLSFEGELTKSLQDMKLQSLFESPDFSKITGKPVKLTQVEHRAAFEWNEEGAGSSPSPGLQPVRLTFPLDYHLNQPFLFVLRDTDTGALLFIGRILDPSST
As for B1, the “regulation of transcription factors” value in data set [3] was “regulates transcription factors”.
